The results in this text go back to patent US10087225B2, “Formulation of MK2 inhibitor peptides” (MOERAE MATRIX, INC., priority 2015, dated 2018).

Peptide text beside a SMILES is read from it.

What is called viability is the share of living cells, or the viability signal relative to a control. Lower therefore signals a greater loss of cells.

In series [1] the test system is HCAVSMCs. Conditions: human, 72 h.
Experimental: For MK2i-NP and HSP20-NP studies, An amine-reactive Alexa-488 succinimidyl ester (Life Technologies) was dissolved in DMSO and mixed at a 1 to 3 molar ratio with the MK2i or p-HSP20 peptide in 100 mM sodium bicarbonate buffer (pH=8.3) and allowed to react for 3 hours. Unreacted fluorophore and organic solvent were removed using a PD-10 miditrap G-10 desalting column, and the fluorescently labeled MK2i and p-HSP20 peptides were lyophilized. […] Similarly, PPAA was mixed with fluorescently labeled p-HSP20 at a CR of [NH3^+]/[COO^−]=1:3 and syringe filtered through a 0.45 μm PTFE filter to form fluorescent HSP20-NPs. HCAVSMCs were grown to 80-90% confluence, harvested, and seeded at 20,000 cells/well in a 24 well plate and allowed to adhere overnight. […] Following treatment, cells were washed 2× in PBS, and either immediately harvested or incubated in complete growth media for an additional 72 hours. Cells were harvested with 0.05% trypsin-EDTA, centrifuged, and suspended in 0.1% Trypan blue in PBS (−/−) for analysis on a FACSCalibur flow cytometer (Becton Dickinson) with BD CellQuest™ Pro software (V 5.2). Data was exported and analyzed with FlowJo software (V 7.6.4). All samples were run in triplicate.
Series [2] relates to HCAVSMCs. Nature of the series: Cytosolic vs. organelle bound peptide by digitonin semi-permeabilization. In kind it is cell-based, human. To be noted: Bafilomycin treatment. The procedure: In order to quantify the cytosolic bioavailability of the MK2i and HSP20 peptides a method to separate cytosolic and organelle bound (i.e. endosomal, lysosomal, golgi, etc.) peptide was adapted from the methods developed by Liu et a140. The procedure was optimized for this experiment based upon LDH release from HCAVSMCs treated with varying concentrations of digitonin (Calbiochem) in buffer (150 mM NaCl, 0.2 mM EDTA, 20 mM HEPES-NaOH (pH 7.4), 2 mM DTT and 2 mM MgCL2) on ice for 10 mins on a rotary shaker operating at 100 RPM (supplementary FIG. 3). A concentration of 25 μg/mL was then chosen as the optimal digitonin concentration for selective semi-permeabilization of the HCAVSMC membrane and subsequently used for the analysis of intracellular peptide distribution.
To quantify intracellular distribution of the MK2i and p-HSP20 peptides, HCAVSMCs were seeded into a 96 well plate at a density of 20,000 cells/cm2 and allowed to adhere overnight in complete growth medium. A portion of the cells were pretreated with 500 nM Bafilomycin A1 (Sigma) for 30 minutes, and the Bafilomycin was included in subsequent peptide/NP treatment and in the post-treatment incubation phase to inhibit endosomal acidification. […] Treatments were removed and cells were incubated in fresh medium with or without 500 nM Bafilomycin A1 for 6 hours. […]

The test system of series [3] is human saphenous vein (HSV). Nature of the series: Inhibition of phenylephrine-induced HSV contraction. Conditions: 2 h treatment.
Experimental: Prior to experiments, HSV viability was confirmed. HSV rings were weighed and their lengths recorded. […] The rings were stretched and the length progressively adjusted until maximal tension was obtained 49. Normalized reactivity was obtained by determining the passive length-tension relationship for each vessel segment. Rings were maintained at a resting tension of 1 g, which produces maximal responses to contractile agonists, as previously determined, and equilibrated for 2 h in buffer. Force measurements were obtained using a Radnoti Glass Technology (Monrovia, Calif.) force transducer (159901A) interfaced with a Powerlab data acquisition system and LabChart software (AD Instruments, Colorado Springs, Colo.).
HSV rings were initially isometrically contracted with 110 mM KCl (with equimolar replacement of NaCl in bicarbonate buffer), and the generated force was measured. 110 mM KCl causes membrane depolarization, leading to contraction of vessels containing functionally viable smooth muscle. […]
Viable HSV rings were washed, allowed to equilibrate in bicarbonate solution for 30 min, and then contracted with phenylephrine (PE, 1 μM). […] Treated HSV rings were then contracted with the same doses of PE, and the forces generated were again recorded. […]
The nature of a further series: in vitro. Conditions: human, HCAVSMCs.

Experimental for in vitro: 200 μL of cell suspension (at 10,000 cells/well) were seeded onto 96-well plates to yield an approximate 70% confluence per well. Cells were allowed to adhere to the plate overnight. […] Treatments were subsequently removed and the cells were cultured in fresh complete growth medium for 24 hours. Cells were then washed 2× with PBS +/+ and cell viability was then determined by a CytoTox-ONE Homogenous Membrane Integrity assay (Promega) according to the manufacturer's protocol. Briefly, 100 μL of Ambion KDalert Lysis Buffer was added to each well, and then 100 μL of freshly prepared CytoTox-ONE reagent was added to each well. After 10 minutes of incubation, 50 μL of stop solution was added, and the fluorescence of each well (kλex=560 nm, λem, =590 nm) was determined with a TECAN Infinite M1000 Pro plate reader.

As for `CC(C)C[C@H](NC(=O)CNC(=O)[C@@H]1CCCN1C(=O)[C@H](CC(C)C)NC(=O)[C@@H]1CCCN1C(=O)[C@H](C)NC(=O)[C@H](COP(=O)(O)O)NC(=O)[C@H](C)NC(=O)[C@H](CCCNC(=N)N)NC(=O)[C@H](CCCNC(=N)N)NC(=O)[C@H](CC(C)C)NC(=O)[C@H](Cc1c[nH]c2ccccc12)NC(=O)[C@H](C)NC(=O)[C@H](CCCNC(=N)N)NC(=O)[C@H](C)NC(=O)[C@H](CCC(N)=O)NC(=O)[C@H](CCCNC(=N)N)NC(=O)[C@H](C)NC(=O)[C@H](C)NC(=O)[C@H](C)NC(=O)[C@H](CCCNC(=N)N)NC(=O)[C@H](C)NC(=O)[C@@H](N)Cc1ccc(O)cc1)C(=O)N[C@@H](CCCCN)C(=O)O` [p-HSP20] (HELM PEPTIDE1{Y.A.R.A.A.A.R.Q.A.R.A.W.L.R.R.A.[O=C([C@H](COP(=O)(O)O)N[*:1])[*:2]].A.P.L.P.G.L.K}$$$$V2.0; N-terminus and C-terminus assumed), the “intracellular peptide retention (% of initial uptake remaining)” value with HCAVSMCs [1] stood at 35%. The “cytosolic fraction of internalized free peptide” value in the series with HCAVSMCs [2] was 7.36%±8.28%. In addition, the “PE-induced HSV contraction” value in series [3] is recorded as “significantly inhibited”. Also, the viability at 2 h, 500 µM in “in vitro” worked out at 77%.
